The target in series [1] is T1, recombinant human MMP-1 (Homo sapiens, UniProt P03956).
T1 construct: made in house; host or cells: transfected HT-1080 cells (provided by Dr. Howard Welgus, Washington University)
T1 sequence (P03956 100-469): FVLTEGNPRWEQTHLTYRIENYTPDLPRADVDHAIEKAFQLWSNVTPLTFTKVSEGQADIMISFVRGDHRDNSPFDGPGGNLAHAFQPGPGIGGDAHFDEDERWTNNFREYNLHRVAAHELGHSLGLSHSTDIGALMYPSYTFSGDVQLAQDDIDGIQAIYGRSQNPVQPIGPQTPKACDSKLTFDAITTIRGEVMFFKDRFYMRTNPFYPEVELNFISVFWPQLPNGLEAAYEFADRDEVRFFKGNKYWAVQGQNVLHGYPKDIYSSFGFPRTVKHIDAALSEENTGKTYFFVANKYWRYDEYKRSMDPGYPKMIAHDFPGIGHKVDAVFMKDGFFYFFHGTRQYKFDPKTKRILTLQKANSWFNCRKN
Nature of the series: In vitro metalloprotease inhibition, fluorogenic MCA peptide substrate. As to conditions: recombinant human MMP-1, APMA activated; room temperature; substrate 4 μM; 1 percent DMSO. It is filed as biochemical. As for the experimental part:
(§1) Several of the compounds prepared in the manner described in the previous Examples were assayed for activity by an in vitro assay. Following the procedures of Knight et al., FEBS Lett. 296(3):263 (1992). Briefly, 4-aminophenylmercuric acetate (APMA) or trypsin activated MMPs were incubated with various concentrations of the inhibitor compound at room temperature for 5 minutes.
(§2) More specifically, recombinant human MMP-13 and MMP-1 enzymes were prepared in laboratories of the assignee. MMP-13 was expressed in baculovirus as a proenzyme, and purified first over a heparin agarose column and then over a chelating zinc chloride column. The proenzyme was activated by APMA for use in the assay. MMP-1 expressed in transfected HT-1080 cells was provided by Dr. Howard Welgus of Washington University, St. Louis, Mo. The enzyme was also activated using APMA and was then purified over a hydroxamic acid column.
(§3) The enzyme substrate is a methoxycoumarin-containing polypeptide having the following sequence:
(§4) MCA-ProLeuGlyLeuDpaAlaArgNH^2, wherein MCA is methoxycoumarin and Dpa is 3-(2,4-dinitrophenyl)-L-2,3-diaminopropionyl alanine. This substrate is commercially available from Baychem as product M-1895.
(§5) The buffer used for assays contained 100 mM Tris-HCl, 100 mM NaCl, 10 mM CaCl2 and 0.05 percent polyethyleneglycol (23) lauryl ether at a pH value of 7.5. Assays were carried out at room temperature, and dimethyl sulfoxide (DMSO) at a final concentration of 1 percent was used to dissolve inhibitor compound.
(§6) The assayed inhibitor compound in DMSO/buffer solution was compared to an equal amount of DMSO/buffer with no inhibitor as control using Microfluor™ White Plates (Dynatech). The inhibitor or control solution was maintained in the plate for 10 minutes and the substrate was added to provide a final concentration of 4 μM.
(§7) In the absence of inhibitor activity, a fluorogenic peptide was cleaved at the gly-leu peptide bond, separating the highly fluorogenic peptide from a 2,4-dinitrophenyl quencher, resulting in an increase of fluorescence intensity (excitation at 328 nm/emission at 415 nm). Inhibition was measured as a reduction in fluorescent intensity as a function of inhibitor concentration, using a Perkin Elmer L550 plate reader. The IC50 values were calculated from those values. The results are set forth in the Inhibition Table below, reported in terms of IC50.

The target of series [2] is T2, recombinant human MMP-13 (Homo sapiens, UniProt P45452).
T2 construct: made in house
The description is as above. The class given is biochemical. As to conditions: recombinant human MMP-13, APMA activated; room temperature; substrate 4 μM; 1 percent DMSO. How it is done: as §1, §2, §3, §4, §5, §6, §7

Series [3] deals with solid tumor cancers (colorectal, pancreatic, ovarian, prostate). Conditions: cited from earlier work.

Each structure is given as a SMILES string. pIC50: −log10 of the molar value. Where a name gives a salt, the structure may show the parent alone. Some results are limits rather than exact numbers.

Take `CC(C)[C@H](C(=O)NO)N(CCN1CCCCC1)S(=O)(=O)c1ccc(Sc2ccccc2)cc1` [Example 8d, N-hydroxy-3-methyl-2R-[[(4-phenylthio)-phenyl]-sulfonyl]-[2-(1-piperidinyl)-ethyl]amino]-butanamide, Monohydrochloride]: the figures for the pIC50 in series [1] and in series [2] were 6.30 and 9.00, respectively.
With `C[C@H](C(=O)NO)N(CCN1CCOCC1)S(=O)(=O)c1ccc(Sc2ccccc2)cc1` [Example 3g, N-hydroxy-2R-[[2-(4-morpholinyl)ethyl][[4-(phenylthio)phenyl]sulfonyl]amino]propanamide], the pIC50 in series [1] was 5.74; in series [2], 9.30.
`Cc1ccc(Sc2ccc(S(=O)(=O)N(CCN3CCOCC3)[C@@H](C(=O)NO)C(C)C)cc2)cc1` [Example 2e, N-hydroxy-3-methyl-2R-[[[4-[(4-methylphenyl)-thio]phenyl]sulfonyl][2-(4-morpholinyl)ethyl]-amino]-butanamide, Monohydrochloride]: the values for the pIC50 in series [1] and in series [2] were 5.70 and 9.30, respectively.
Taken in the same sequence, the figures for `Cc1cccc(Sc2ccc(S(=O)(=O)N(CCN3CCOCC3)[C@@H](C(=O)NO)C(C)C)cc2)c1` [Example 1g, N-hydroxy-3-methyl-2R-[[[4-[(3-methylphenyl)thio]phenyl]sulfonyl]-[2-(4-morpholinyl)-ethyl]amino]-butanamide, Monohydrochloride] were 5.82 and 8.72.
The corresponding values for `O=C(CN(CCN1CCOCC1)S(=O)(=O)c1ccc(SC2CCCCC2)cc1)NO` [Example 5f, [[[4-(Cyclohexylthio)phenyl]sulphonyl][2-(4-morpholinyl)ethyl]amino]-N-hydroxyacetamide] are less than 5.00 and 8.80.
Regarding `CNC(=O)[C@@H](NC(=O)[C@H](CC(C)C)[C@H](O)C(=O)NO)C(C)(C)C` [marimastat], the “rise of cancer-specific antigens used as surrogate markers for biological activity” value in series [3] (Phase I/II, patients with advanced, treatment-refractory solid tumor cancers) is on record as “dose-related reduction”. The “most common drug-related toxicity” value in series [3] (clinical trials, patients) was “musculoskeletal pain and stiffness”.
Regarding `CC(C)[C@H](C(=O)NO)N(CCN1CCOCC1)S(=O)(=O)c1ccc(Sc2ccccc2)cc1` [Example 7f, N-hydroxy-3-methyl-2R-[[(4-phenylthio)-phenyl]-sulfonyl]-[2-(4-morpholinyl)-ethyl]amino]-butanamide, Monohydrochloride], the figures for the pIC50 in series [1] and in series [2] were 6.25 and 9.52, respectively.
Regarding `Cc1ccc(Sc2ccc(S(=O)(=O)N(CCN3CCOCC3)[C@H](C)C(=O)NO)cc2)cc1` [Example 4f, N-hydroxy-2R-[[2-(4-morpholinyl)ethyl][[4-[(4-methylphenyl)thio]phenyl]sulfonyl]-amino]-propanamide, Monohydrochloride], the pIC50 is less than 5.00 in series [1] and 10.00 in series [2].
Taken in the same sequence, the figures for `O=C(CN(CCN1CCOCC1)S(=O)(=O)c1ccc(Sc2ccccc2)cc1)NO` [Example 6e, 2-[[[4-(phenylthio)phenyl]sulphonyl][2-(4-morpholinyl)ethyl]amino]-N-hydroxyacetamide, Hydrochloride] were 5.40 and 10.00.

By pIC50 is commonly meant −log10 of the IC50, conventionally taken in molar units.

Values taken from patent US20040034071A1, “Thioaryl sulfonamide hydroxamic acid compounds” (priority 1999, published 2004).
